Experimental data taken from the Kinase Knowledgebase extract (Sharma et al. 2016).

How the values were obtained:
PIK3CA (human) = PIK3CA (human) (UniProt P42336); assay: Assessment of PIK3CA Kinase Activity
PIK3CD (Human) = PIK3CD (Human) (UniProt O00329); assay: Assessment of PIK3CD Kinase Activity
PIK3CG (human) = PIK3CG (human) (UniProt P48736); assay: Assessment of PIK3CG Kinase Activity
PIK3CB (Human) = PIK3CB (Human) (UniProt P42338); assay: Assessment of PIK3CB Kinase Activity
Sequence of PIK3CB (Human) (P42338 whole entry, looked up): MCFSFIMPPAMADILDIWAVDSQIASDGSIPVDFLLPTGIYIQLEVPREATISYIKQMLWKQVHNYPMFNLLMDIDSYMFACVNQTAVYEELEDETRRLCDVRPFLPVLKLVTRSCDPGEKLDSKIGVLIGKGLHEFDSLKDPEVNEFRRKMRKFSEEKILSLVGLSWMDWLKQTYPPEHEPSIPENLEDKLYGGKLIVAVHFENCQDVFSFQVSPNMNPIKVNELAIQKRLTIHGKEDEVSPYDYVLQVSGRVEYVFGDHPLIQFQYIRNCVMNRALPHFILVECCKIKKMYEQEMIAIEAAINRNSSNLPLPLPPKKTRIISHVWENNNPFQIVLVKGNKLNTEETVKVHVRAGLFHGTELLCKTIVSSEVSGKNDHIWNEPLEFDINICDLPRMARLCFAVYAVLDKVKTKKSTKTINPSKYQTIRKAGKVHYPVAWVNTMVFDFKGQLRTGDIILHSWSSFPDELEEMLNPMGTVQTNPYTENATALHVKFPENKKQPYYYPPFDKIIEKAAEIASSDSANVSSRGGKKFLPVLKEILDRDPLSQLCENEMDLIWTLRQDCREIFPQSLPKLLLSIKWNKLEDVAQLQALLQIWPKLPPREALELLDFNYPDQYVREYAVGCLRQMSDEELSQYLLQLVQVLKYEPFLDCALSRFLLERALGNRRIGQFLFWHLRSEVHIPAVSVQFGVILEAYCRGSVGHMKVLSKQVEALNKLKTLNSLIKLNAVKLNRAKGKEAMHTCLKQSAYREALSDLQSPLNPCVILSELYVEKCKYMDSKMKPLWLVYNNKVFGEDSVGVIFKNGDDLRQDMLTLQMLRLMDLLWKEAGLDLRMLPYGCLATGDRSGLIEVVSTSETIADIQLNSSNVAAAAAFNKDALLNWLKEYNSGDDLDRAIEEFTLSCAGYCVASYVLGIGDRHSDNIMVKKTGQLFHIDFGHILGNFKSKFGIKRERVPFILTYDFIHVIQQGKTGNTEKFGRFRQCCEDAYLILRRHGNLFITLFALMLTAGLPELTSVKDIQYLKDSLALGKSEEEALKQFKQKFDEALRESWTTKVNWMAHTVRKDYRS

Sequence of PIK3CG (human) (P48736 whole entry, looked up): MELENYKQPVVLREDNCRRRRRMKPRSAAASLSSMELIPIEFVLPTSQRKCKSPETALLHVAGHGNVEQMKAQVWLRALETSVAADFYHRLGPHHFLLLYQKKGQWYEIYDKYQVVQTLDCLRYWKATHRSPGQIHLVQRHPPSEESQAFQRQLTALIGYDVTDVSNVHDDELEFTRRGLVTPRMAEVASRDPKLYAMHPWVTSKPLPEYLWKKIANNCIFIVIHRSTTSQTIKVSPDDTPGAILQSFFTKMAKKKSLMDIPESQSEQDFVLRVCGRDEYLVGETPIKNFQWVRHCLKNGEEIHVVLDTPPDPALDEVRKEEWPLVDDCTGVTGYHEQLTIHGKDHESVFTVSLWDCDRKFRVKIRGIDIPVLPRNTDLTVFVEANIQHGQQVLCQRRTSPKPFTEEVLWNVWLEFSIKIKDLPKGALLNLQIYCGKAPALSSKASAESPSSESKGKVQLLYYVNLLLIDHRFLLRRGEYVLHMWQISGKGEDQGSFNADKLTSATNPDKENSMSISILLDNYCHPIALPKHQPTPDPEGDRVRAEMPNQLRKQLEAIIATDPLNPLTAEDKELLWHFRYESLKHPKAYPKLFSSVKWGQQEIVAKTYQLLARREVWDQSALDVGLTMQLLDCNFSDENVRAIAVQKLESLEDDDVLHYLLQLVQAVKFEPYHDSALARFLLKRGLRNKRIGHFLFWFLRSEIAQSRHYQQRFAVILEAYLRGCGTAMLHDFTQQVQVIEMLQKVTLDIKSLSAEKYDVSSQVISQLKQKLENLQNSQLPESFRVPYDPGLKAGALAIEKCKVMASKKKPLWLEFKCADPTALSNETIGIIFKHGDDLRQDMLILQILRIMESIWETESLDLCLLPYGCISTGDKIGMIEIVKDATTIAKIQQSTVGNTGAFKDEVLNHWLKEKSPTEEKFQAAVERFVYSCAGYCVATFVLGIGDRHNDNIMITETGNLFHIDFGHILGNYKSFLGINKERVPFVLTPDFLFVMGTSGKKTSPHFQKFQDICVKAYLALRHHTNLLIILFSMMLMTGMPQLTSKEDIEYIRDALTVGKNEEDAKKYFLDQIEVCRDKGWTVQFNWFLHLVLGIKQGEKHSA
Sequence of PIK3CD (Human) (O00329 whole entry, looked up): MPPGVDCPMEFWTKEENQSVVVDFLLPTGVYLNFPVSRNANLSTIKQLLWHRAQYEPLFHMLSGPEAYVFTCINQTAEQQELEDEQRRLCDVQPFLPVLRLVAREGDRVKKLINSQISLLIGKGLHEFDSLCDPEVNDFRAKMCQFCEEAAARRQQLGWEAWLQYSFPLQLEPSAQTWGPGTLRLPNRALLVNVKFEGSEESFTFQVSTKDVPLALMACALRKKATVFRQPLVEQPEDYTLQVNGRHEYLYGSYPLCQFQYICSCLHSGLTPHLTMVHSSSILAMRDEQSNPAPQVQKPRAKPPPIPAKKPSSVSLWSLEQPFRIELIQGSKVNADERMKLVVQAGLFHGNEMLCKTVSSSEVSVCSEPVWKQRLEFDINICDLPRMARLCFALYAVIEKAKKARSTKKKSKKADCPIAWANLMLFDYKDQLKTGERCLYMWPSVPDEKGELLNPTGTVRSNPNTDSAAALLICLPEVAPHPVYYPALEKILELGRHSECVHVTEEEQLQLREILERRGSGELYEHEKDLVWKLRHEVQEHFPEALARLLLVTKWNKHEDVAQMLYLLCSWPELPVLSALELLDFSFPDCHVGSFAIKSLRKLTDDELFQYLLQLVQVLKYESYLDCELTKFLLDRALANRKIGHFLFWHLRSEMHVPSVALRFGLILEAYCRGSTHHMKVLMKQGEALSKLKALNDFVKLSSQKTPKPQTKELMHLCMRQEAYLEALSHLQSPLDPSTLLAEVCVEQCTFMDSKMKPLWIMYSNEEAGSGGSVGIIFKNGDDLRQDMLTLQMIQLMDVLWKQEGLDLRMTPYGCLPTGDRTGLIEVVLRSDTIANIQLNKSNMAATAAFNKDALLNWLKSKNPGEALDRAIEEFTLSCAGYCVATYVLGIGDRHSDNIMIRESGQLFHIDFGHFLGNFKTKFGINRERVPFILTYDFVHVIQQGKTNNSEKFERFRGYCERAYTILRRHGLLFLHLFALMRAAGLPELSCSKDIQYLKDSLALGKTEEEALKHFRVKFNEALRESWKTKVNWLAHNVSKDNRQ
Sequence of PIK3CA (human) (P42336 whole entry, looked up): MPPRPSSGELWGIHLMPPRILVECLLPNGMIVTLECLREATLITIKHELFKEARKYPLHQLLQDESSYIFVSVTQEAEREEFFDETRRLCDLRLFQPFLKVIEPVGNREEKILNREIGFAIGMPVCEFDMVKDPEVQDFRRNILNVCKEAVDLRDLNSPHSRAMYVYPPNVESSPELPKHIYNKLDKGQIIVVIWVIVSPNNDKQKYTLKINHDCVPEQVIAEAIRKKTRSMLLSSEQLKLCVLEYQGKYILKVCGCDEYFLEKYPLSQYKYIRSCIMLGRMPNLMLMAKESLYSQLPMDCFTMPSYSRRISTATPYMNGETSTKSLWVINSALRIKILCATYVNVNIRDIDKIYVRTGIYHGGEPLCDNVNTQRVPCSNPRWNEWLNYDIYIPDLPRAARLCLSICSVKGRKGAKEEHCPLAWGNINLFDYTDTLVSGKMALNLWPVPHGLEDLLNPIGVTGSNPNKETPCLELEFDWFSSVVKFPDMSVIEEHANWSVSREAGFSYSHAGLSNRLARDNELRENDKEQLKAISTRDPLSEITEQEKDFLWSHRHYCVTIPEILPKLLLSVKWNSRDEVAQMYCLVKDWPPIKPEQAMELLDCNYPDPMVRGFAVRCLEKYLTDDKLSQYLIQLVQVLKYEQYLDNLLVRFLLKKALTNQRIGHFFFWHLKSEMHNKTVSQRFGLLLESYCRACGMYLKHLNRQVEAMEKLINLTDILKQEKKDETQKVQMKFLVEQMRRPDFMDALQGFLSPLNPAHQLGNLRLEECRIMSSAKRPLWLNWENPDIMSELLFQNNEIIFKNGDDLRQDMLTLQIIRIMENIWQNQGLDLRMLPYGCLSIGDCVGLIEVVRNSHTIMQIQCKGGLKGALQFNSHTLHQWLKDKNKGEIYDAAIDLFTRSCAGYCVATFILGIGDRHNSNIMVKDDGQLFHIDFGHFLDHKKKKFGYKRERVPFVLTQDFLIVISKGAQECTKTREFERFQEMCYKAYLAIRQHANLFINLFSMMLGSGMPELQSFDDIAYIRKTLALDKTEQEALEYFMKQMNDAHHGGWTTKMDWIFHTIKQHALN

| IC50 (PIK3CA (human)) | IC50 (PIK3CD (Human)) | IC50 (PIK3CG (human)) | IC50 (PIK3CB (Human)) | Compound |
| --- | --- | --- | --- | --- |
| 500 to 1000 nM | – | – | – | CNc1nc(C)c2cc(-c3ccc(O)c(F)c3)ccc2n1 |
| 500 to 1000 nM | – | – | – | CNc1nc(C)c2cc(-c3ccc(O)c(Cl)c3)ccc2n1 |
| ≤ 100 nM | ≤ 100 nM | ≤ 100 nM | – | Cc1nc(Nc2cccnc2)nc2ccc(-c3cccc(O)c3)cc12 |
| ≤ 100 nM | ≤ 100 nM | ≤ 100 nM | – | Cc1nc(Nc2cccnc2)nc2ccc(-c3cc(O)cc(F)c3)cc12 |
| 500 to 1000 nM | – | – | – | CNc1nc(C)c2cc(-c3ccc(F)c(O)c3)ccc2n1 |
| 500 to 1000 nM | – | 100 to 500 nM | – | CNc1nc(C)c2cc(-c3cnc4[nH]ccc4c3)ccc2n1 |
| 100 to 500 nM | ≤ 100 nM | ≤ 100 nM | 500 to 1000 nM | CNc1nc(C)c2cc(-c3cc(O)cc(F)c3)ccc2n1 |

Further lines, the molecule ahead of its results:

| Compound | IC50 (PIK3CA (human)) | IC50 (PIK3CD (Human)) | IC50 (PIK3CG (human)) | IC50 (PIK3CB (Human)) |
| --- | --- | --- | --- | --- |
| CNc1nc(C)c2cc(-c3cccc(O)c3)ccc2n1 | 100 to 500 nM | 100 to 500 nM | ≤ 100 nM | – |
| Cc1nc(N)nc2ccc(-c3cnc4[nH]ccc4c3)cc12 | 500 to 1000 nM | – | – | – |
| Cc1nc(N)nc2ccc(-c3cccc(O)c3)cc12 | 100 to 500 nM | ≤ 100 nM | ≤ 100 nM | 100 to 500 nM |
| Nc1ncc2cc(-c3cccc(O)c3)ccc2n1 | 100 to 500 nM | – | – | – |
